These results are taken from ChEMBL document CHEMBL3137667, “[Drug-induced liver injury; fourteenth updated edition of the bibliographic database of liver injuries and related drugs]” (Gastroenterol Clin Biol, 2004).

A short description of data set [1]: Highest frequency of moderate liver toxicity observed during clinical trials, expressed as a percentage. [column '% BIOL' in source]. The settings on record: human.
A short description of data set [2]: Highest frequency of acute liver toxicity observed during clinical trials, expressed as a percentage. [column '% AIGUE' in source]. The conditions noted are these: human.
The conditions of data set [3]: human, serum.
The conditions of data set [4]: human, serum. This is another data set of the same source.
For data set [5] the following is noted: human.
For data set [6] the following is noted: human. This is another data set of the same source.
For data set [7] the following is noted: human. This is another data set of the same source.
The conditions of data set [8]: human, serum, 4383 h.
The conditions of data set [9]: human. This is another data set of the same source.
For data set [10] the following is noted: human. The source holds these as a separate data set.
For data set [11] the following is noted: human. This is another data set of the same source.
The conditions of data set [12]: human. This is another data set of the same source.
The conditions of data set [13]: human. The source holds these as a separate data set.
The conditions of data set [14]: human. This is another data set of the same source.

Structures are written as SMILES.
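Wherever Hepatotoxicity (association with vascular disease) is given: count of indexed literature references reporting vascular liver injury in humans, e.g. peliosis hepatitis, hepatic veno-occlusive disease or Budd-Chiari syndrome.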
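Wherever Hepatotoxicity (benign tumour) is given: value is a count of indexed literature references citing a benign tumour confirmed by histopathology.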
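Wherever Hepatotoxicity (choleostasis) is given: human cholestatic liver injury, shown by histopathology or by peak ALT or AST elevation over alkaline phosphatase ratio below 2, value counts indexed literature reports.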
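Wherever Hepatotoxicity (chronic liver disease) is given: chronic liver injury confirmed by histopathology or persistently raised serum aminotransferase activity beyond 6 months, value given as the count of indexed literature references.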
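Wherever Hepatotoxicity (cirrhosis) is given: value is a count of indexed literature references reporting cirrhosis confirmed by histopathology.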
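Wherever Hepatotoxicity (cytolytic) is given: human cytolytic liver injury, shown by histopathology or by a ratio above 5 of peak ALT or AST elevation to alkaline phosphatase elevation, value counts indexed references.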
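Wherever Hepatotoxicity (granulomatous hepatitis) is given: value is a count of indexed literature references reporting granulomatous liver disease confirmed by histopathology.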
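Wherever Hepatotoxicity (malignant tumour) is given: malignant tumour confirmed by histopathology, value gives the count of indexed literature references reporting it.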
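Wherever Hepatotoxicity (severe hepatitis) is given: human clinical data: severe hepatitis, meaning potentially life-threatening liver failure or clinically observed cases, the value counts how many indexed literature references report it.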
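Wherever Hepatotoxicity (steatosis) is given: steatosis confirmed by histopathology, value is the count of indexed references.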

Take `CNC(=O)c1cccc2c(Nc3ccc(NS(C)(=O)=O)cc3OC)c3cccc(C)c3nc12` [ASULACRINE]: the “Hepatotoxicity (moderate)” value in data set [1] amounted to 17%; in [3], 2. The “Hepatotoxicity (acute)” value stood at 0% in data set [2] and 0 in data set [4]. Moreover, the “Hepatotoxicity (cytolytic)” value in data set [5] worked out at 0. Further, the “Hepatotoxicity (choleostasis)” value in [6] is reported as 0. The “Hepatotoxicity (severe hepatitis)” value in data set [7] was 0. Moreover, in data set [8], the “Hepatotoxicity (chronic liver disease)” value is listed as 0. The “Hepatotoxicity (cirrhosis)” value in [9] came out at 0. Besides, the “Hepatotoxicity (granulomatous hepatitis)” value in data set [10] came to 0. In addition, the “Hepatotoxicity (association with vascular disease)” value in [11] was found to be 0. Moreover, the “Hepatotoxicity (steatosis)” value in data set [12] is reported as 0. Further, the “Hepatotoxicity (malignant tumour)” value in [13] is listed as 0. Also, the “Hepatotoxicity (benign tumour)” value in data set [14] turned out to be 0.
As for `CC1(C)S[C@@H]2[C@H](NC(=O)[C@H](NC(=O)N3CCNC3=O)c3ccccc3)C(=O)N2[C@H]1C(=O)O` [AZLOCILLIN], the “Hepatotoxicity (moderate)” value in data set [1] worked out at 11.1%; in data set [3], 3. Moreover, the “Hepatotoxicity (acute)” value is on record as 0% in data set [2] and 0 in data set [4]. Also, the “Hepatotoxicity (cytolytic)” value in data set [5] is given as 0. The “Hepatotoxicity (choleostasis)” value in data set [6] was found to be 0. Further, the “Hepatotoxicity (severe hepatitis)” value in data set [7] turned out to be 0. Besides, in [8], the “Hepatotoxicity (chronic liver disease)” value is reported as 0. The “Hepatotoxicity (cirrhosis)” value in data set [9] is listed as 0. In data set [10], the “Hepatotoxicity (granulomatous hepatitis)” value came out at 0. Also, the “Hepatotoxicity (association with vascular disease)” value in data set [11] turned out to be 0. The “Hepatotoxicity (steatosis)” value in data set [12] came out at 0. Further, the “Hepatotoxicity (malignant tumour)” value in data set [13] is listed as 0. Moreover, the “Hepatotoxicity (benign tumour)” value in data set [14] stood at 0.
As to `CCOC(=O)OC(C)OC(=O)[C@@H]1N2C(=O)[C@@H](NC(=O)[C@H](N)c3ccccc3)[C@H]2SC1(C)C` (stereo partly specified) [BACAMPICILLIN], the “Hepatotoxicity (moderate)” value in data set [1] stood at 0%; in [3] it was 2. Moreover, the “Hepatotoxicity (acute)” value in data set [2] is 0%; in [4] it was 0. Besides, the “Hepatotoxicity (cytolytic)” value in [5] is recorded as 0. Moreover, in data set [6], the “Hepatotoxicity (choleostasis)” value worked out at 0. Moreover, the “Hepatotoxicity (severe hepatitis)” value in data set [7] was 0. Besides, the “Hepatotoxicity (chronic liver disease)” value in [8] was determined as 0. Besides, the “Hepatotoxicity (cirrhosis)” value in data set [9] is 0. Moreover, in data set [10], the “Hepatotoxicity (granulomatous hepatitis)” value is on record as 0. For the same compound, the “Hepatotoxicity (association with vascular disease)” value in data set [11] stood at 0. In [12], the “Hepatotoxicity (steatosis)” value is reported as 0. In addition, in data set [13], the “Hepatotoxicity (malignant tumour)” value is on record as 0. In addition, the “Hepatotoxicity (benign tumour)” value in data set [14] came to 0.
In the case of `CCOC(=O)OC(C)OC(=O)[C@@H]1N2C(=O)[C@@H](/N=C/N3CCCCCC3)[C@H]2SC1(C)C` (stereo partly specified) [BACMECILLINAM], the “Hepatotoxicity (moderate)” value was found to be 1.8% in [1] and 3 in data set [3]. Also, the “Hepatotoxicity (acute)” value is 0% in [2] and 0 in [4]. Moreover, in [5], the “Hepatotoxicity (cytolytic)” value is 0. Moreover, the “Hepatotoxicity (choleostasis)” value in [6] was 0. Further, the “Hepatotoxicity (severe hepatitis)” value in data set [7] came out at 0. Further, the “Hepatotoxicity (chronic liver disease)” value in data set [8] was 0. Also, in data set [9], the “Hepatotoxicity (cirrhosis)” value is 0. Moreover, in data set [10], the “Hepatotoxicity (granulomatous hepatitis)” value is 0. Moreover, in data set [11], the “Hepatotoxicity (association with vascular disease)” value stood at 0. Further, in data set [12], the “Hepatotoxicity (steatosis)” value came out at 0. The “Hepatotoxicity (malignant tumour)” value in [13] was 0. Also, the “Hepatotoxicity (benign tumour)” value in data set [14] worked out at 0.
For the compound `CNC1CCCN(c2c(F)cc3c(=O)c(C(=O)O)cn(C4CC4)c3c2OC)C1` (stereo unspecified) [BALOFLOXACIN], the results for the “Hepatotoxicity (moderate)” value in data set [1] and in [3] were 28.6% and 23, respectively. In addition, the results for the “Hepatotoxicity (acute)” value in [2] and in [4] were 0% and 0, respectively. For the same compound, the “Hepatotoxicity (cytolytic)” value in data set [5] was 0. Also, the “Hepatotoxicity (choleostasis)” value in data set [6] amounted to 0. For the same compound, the “Hepatotoxicity (severe hepatitis)” value in [7] came out at 0. In addition, in [8], the “Hepatotoxicity (chronic liver disease)” value stood at 0. Also, the “Hepatotoxicity (cirrhosis)” value in data set [9] is recorded as 0. Besides, in data set [10], the “Hepatotoxicity (granulomatous hepatitis)” value is on record as 0. In addition, the “Hepatotoxicity (association with vascular disease)” value in data set [11] came out at 0. Besides, the “Hepatotoxicity (steatosis)” value in data set [12] stood at 0. Besides, in data set [13], the “Hepatotoxicity (malignant tumour)” value turned out to be 0. In addition, the “Hepatotoxicity (benign tumour)” value in data set [14] turned out to be 0.
With `COC(=O)C1=C(C)NC(C)=C(C(=O)O[C@H]2CCN(Cc3ccccc3)C2)[C@H]1c1cccc([N+](=O)[O-])c1` [BARNIDIPINE], the “Hepatotoxicity (moderate)” value turned out to be 6.5% in data set [1] and 1 in data set [3]. Further, the “Hepatotoxicity (acute)” value in [2] is listed as 0%; in data set [4], 0. The “Hepatotoxicity (cytolytic)” value in [5] worked out at 0. The “Hepatotoxicity (choleostasis)” value in data set [6] was determined as 0. The “Hepatotoxicity (severe hepatitis)” value in data set [7] came to 0. In addition, the “Hepatotoxicity (chronic liver disease)” value in data set [8] stood at 0. Moreover, the “Hepatotoxicity (cirrhosis)” value in data set [9] is 0. The “Hepatotoxicity (granulomatous hepatitis)” value in data set [10] came to 0. In data set [11], the “Hepatotoxicity (association with vascular disease)” value is recorded as 0. In [12], the “Hepatotoxicity (steatosis)” value is 0. Further, the “Hepatotoxicity (malignant tumour)” value in data set [13] is given as 0. Moreover, the “Hepatotoxicity (benign tumour)” value in data set [14] turned out to be 0.
Regarding `C[C@H]1C[C@H]2[C@@H]3CCC4=CC(=O)C=C[C@]4(C)[C@@]3(Cl)[C@@H](O)C[C@]2(C)[C@@]1(O)C(=O)CO` [BECLOMETHASONE], the entries for the “Hepatotoxicity (moderate)” value in data set [1] and in data set [3] were 11.6% and 1, respectively. Besides, the “Hepatotoxicity (acute)” value in data set [2] is on record as 0%; in data set [4] it was 0. In addition, in data set [5], the “Hepatotoxicity (cytolytic)” value worked out at 0. The “Hepatotoxicity (choleostasis)” value in data set [6] is 0. Moreover, the “Hepatotoxicity (severe hepatitis)” value in data set [7] is recorded as 0. In addition, in data set [8], the “Hepatotoxicity (chronic liver disease)” value is 0. In data set [9], the “Hepatotoxicity (cirrhosis)” value is reported as 0. Also, the “Hepatotoxicity (granulomatous hepatitis)” value in data set [10] was found to be 0. The “Hepatotoxicity (association with vascular disease)” value in data set [11] is on record as 0. In addition, the “Hepatotoxicity (steatosis)” value in data set [12] worked out at 0. Further, the “Hepatotoxicity (malignant tumour)” value in data set [13] came out at 0. In addition, the “Hepatotoxicity (benign tumour)” value in data set [14] amounted to 0.
As for `NS(=O)(=O)c1cc2c(cc1C(F)(F)F)NC(Cc1ccccc1)NS2(=O)=O` (stereo unspecified) [BENDROFLUMETHIAZIDE], the “Hepatotoxicity (moderate)” value in data set [1] worked out at 0%; in data set [3] it was 0. Moreover, the “Hepatotoxicity (acute)” value is 0% in data set [2] and 1 in data set [4]. The “Hepatotoxicity (cytolytic)” value in data set [5] is 0. In addition, the “Hepatotoxicity (choleostasis)” value in data set [6] is recorded as 0. In data set [7], the “Hepatotoxicity (severe hepatitis)” value amounted to 0. The “Hepatotoxicity (chronic liver disease)” value in [8] was 0. The “Hepatotoxicity (cirrhosis)” value in data set [9] is listed as 0. For the same compound, the “Hepatotoxicity (granulomatous hepatitis)” value in [10] worked out at 0. The “Hepatotoxicity (association with vascular disease)” value in [11] is recorded as 0. Also, the “Hepatotoxicity (steatosis)” value in data set [12] is 0. Also, the “Hepatotoxicity (malignant tumour)” value in data set [13] stood at 0. Further, the “Hepatotoxicity (benign tumour)” value in data set [14] is recorded as 0.
In the case of `O=C(Cn1ccnc1[N+](=O)[O-])NCc1ccccc1` [BENZNIDAZOLE], the “Hepatotoxicity (moderate)” value in data set [1] stood at 0%; in data set [3], 0. The “Hepatotoxicity (acute)” value in [2] is reported as 0%; in [4] it was 1. In addition, in [5], the “Hepatotoxicity (cytolytic)” value amounted to 0. The “Hepatotoxicity (choleostasis)” value in data set [6] stood at 0. In addition, the “Hepatotoxicity (severe hepatitis)” value in data set [7] is on record as 0. Besides, in [8], the “Hepatotoxicity (chronic liver disease)” value came to 0. For the same compound, the “Hepatotoxicity (cirrhosis)” value in data set [9] is 0. In addition, the “Hepatotoxicity (granulomatous hepatitis)” value in data set [10] was 0. In addition, in [11], the “Hepatotoxicity (association with vascular disease)” value is on record as 0. The “Hepatotoxicity (steatosis)” value in data set [12] is recorded as 0. In addition, the “Hepatotoxicity (malignant tumour)” value in data set [13] was found to be 0. Further, the “Hepatotoxicity (benign tumour)” value in data set [14] turned out to be 0.
